Assay results taken from patent publication US8883827B2, “Azole derivatives as WTN pathway inhibitors” (Oslo University Hospital HF, priority 2009, dated 2014).
pIC50: −log10 of the molar value. Where two headings read alike, the source gives them in different places.

Columns and labels:
SW480 cells [1] = test: MTS cell growth assay (Example 27); type: cell-based; details: Homo sapiens, 72 h, read-out: IC50, reduction of proliferation
Protocol: Thus, the effect of compound No. 1 on cell growth was tested in SW480 cell lines using MTS analysis (MTS is the colorimetric substrate 3-(4,5-dimethylthiazol-2-yl)-5-(3-carboxymethoxyphenyl)-2-(4-sulfophenyl)-2H-tetrazolium).
(§1) 3000 cells were seeded on 96 well plates in quadruplicates for each sample. The following day, cell culture medium was mixed with compound No. 1 in various concentrations or with 0.5% DMSO vehicle (control) and added to the wells.
(§2) Eight wells of seeded control cells, defining incubation time 0 (t0), were incubated with 20 μl substrate in 100 μl phenol-free D-MEM (Invitrogen) for 3 hours, as described in the CellTiter 96® AQueous Non-Radioactive Cell Proliferation Assay (MTS) protocol (Promega). The A490 value was recorded.
(§3) Samples were measured after 72 hours. The following formula was used to determine the single well relative A490 sample values: ((Sample A490−Average A490 to)×100)/(Average A490 0.5% DMSO control−Average A490 t0).

[2] = tested on: HeLa (cervical adenocarcinoma) cells; test: MTS cell growth assay (Example 27); type: cell-based; details: 72 h
Protocol: as §1, §2, §3

MeWo (melanoma) cells = test: MTS cell growth assay (Example 27); type: cell-based; details: 72 h
Protocol: as §1, §2, §3

[3] = tested on: THLE2 (hepatocytes) cells; test: MTS cell growth assay (Example 27); type: cell-based; details: 72 h
Protocol: as §1, §2, §3

[4] = Compound concentration in plasma and tumors of xenograft mice; type: in vivo; details: C.B-Igh-1b/IcrTac-Prkdc scid (CB17/SCID), mouse, intraperitoneal, 24 h after last injection, day 29
Protocol: Daily injections (200 μl, i.p.) followed (two day injection intermissions after every fifth injection day) until experiment end (29 days). At the termination day, 24 hours after the last injection, blood was collected after cardiac puncture and the tumors were removed and weighed. The compound concentration in plasma and tumors was determined using an on-line and off-line Solid Phase Extraction-Capillary Liquid Chromatography (SPE-CapLC) instrumentation coupled to a Time of Flight (TOF) mass spectrometer, as previously described (Wilson, S. R. et al., J. Sep. Sci. 28: 1751-1758, 2005). A Zorbax SB C18 5 μm 150×0.3 mm column (Agilent, […], Calif., USA) was used for separation, and a Knauer K-2600 UV detector was used as a complimentary detector.

SW480 cells [5] = test: Growth inhibition (GI50) MTS assay; type: cell-based; details: Homo sapiens, 72 h
[6] = tested on: panel of phosphatases and kinases; test: KinaseProfiler phosphatase and kinase panel (whole); type: biochemical; details: 10 μM compound
LMPTP-B(h) = molecular target: T1, LMPTP-B(h) (Homo sapiens, UniProt P24666); test: Phosphatase screen; type: biochemical; details: 0.1% DMSO control = 100%
T1 construct: purchased Millipore (KinaseProfiler service)
T1 sequence (P24666 1-158 isoform P24666-2): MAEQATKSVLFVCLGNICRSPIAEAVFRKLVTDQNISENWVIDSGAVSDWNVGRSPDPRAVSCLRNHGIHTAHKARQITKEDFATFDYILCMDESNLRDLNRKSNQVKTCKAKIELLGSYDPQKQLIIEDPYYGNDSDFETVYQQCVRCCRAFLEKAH

PTPb(h) = molecular target: T2, PTPb(h) (Homo sapiens, UniProt P23467); test: Phosphatase screen; type: biochemical; details: 0.1% DMSO control = 100%
T2 construct: purchased Millipore (KinaseProfiler service)

SHP-1(h) = molecular target: T3, SHP-1(h) (Homo sapiens, UniProt P29350); test: Phosphatase screen; type: biochemical; details: 0.1% DMSO control = 100%
T3 construct: purchased Millipore (KinaseProfiler service)
T3 sequence (P29350 whole entry): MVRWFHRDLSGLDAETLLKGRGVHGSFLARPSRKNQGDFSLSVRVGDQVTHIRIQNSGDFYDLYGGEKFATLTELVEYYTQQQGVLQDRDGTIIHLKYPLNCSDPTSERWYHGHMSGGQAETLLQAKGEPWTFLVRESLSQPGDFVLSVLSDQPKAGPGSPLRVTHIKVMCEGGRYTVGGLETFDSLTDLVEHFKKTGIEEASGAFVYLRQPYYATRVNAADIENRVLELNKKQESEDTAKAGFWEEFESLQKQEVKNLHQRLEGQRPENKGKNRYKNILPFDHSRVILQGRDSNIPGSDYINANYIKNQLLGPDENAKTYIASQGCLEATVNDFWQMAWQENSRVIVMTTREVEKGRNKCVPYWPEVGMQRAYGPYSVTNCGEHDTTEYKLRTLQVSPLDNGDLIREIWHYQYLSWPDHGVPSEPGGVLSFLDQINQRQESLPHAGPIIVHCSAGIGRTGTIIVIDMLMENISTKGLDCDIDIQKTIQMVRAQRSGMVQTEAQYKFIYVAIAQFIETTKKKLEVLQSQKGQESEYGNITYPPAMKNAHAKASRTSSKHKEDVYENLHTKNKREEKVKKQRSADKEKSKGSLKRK

TCPTP(h) = molecular target: T4, TCPTP(h) (Homo sapiens, UniProt P17706); test: Phosphatase screen; type: biochemical; details: 0.1% DMSO control = 100%
T4 construct: purchased Millipore (KinaseProfiler service)
T4 sequence (P17706 whole entry): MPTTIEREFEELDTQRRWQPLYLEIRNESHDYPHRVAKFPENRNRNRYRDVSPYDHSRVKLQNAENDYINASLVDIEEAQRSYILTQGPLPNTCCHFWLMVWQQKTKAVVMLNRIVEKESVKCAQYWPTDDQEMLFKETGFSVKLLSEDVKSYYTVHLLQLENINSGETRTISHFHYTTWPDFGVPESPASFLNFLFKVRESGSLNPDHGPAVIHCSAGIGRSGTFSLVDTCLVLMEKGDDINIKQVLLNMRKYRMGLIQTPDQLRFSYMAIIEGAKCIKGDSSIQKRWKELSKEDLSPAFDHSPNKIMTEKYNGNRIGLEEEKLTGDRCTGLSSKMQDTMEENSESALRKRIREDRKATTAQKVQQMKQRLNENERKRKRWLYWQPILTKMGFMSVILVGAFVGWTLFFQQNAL

Abl(h) = molecular target: T5, Abl(h) (Homo sapiens, UniProt P00519); test: Kinase screen; type: biochemical; details: 0.1% DMSO control = 100%
T5 construct: purchased Millipore (KinaseProfiler service)

AMPKα1(h) = molecular target: T6, AMPKα1(h) (Homo sapiens, UniProt Q13131); test: Kinase screen; type: biochemical; details: 0.1% DMSO control = 100%
T6 construct: purchased Millipore (KinaseProfiler service)
T6 sequence (Q13131 whole entry): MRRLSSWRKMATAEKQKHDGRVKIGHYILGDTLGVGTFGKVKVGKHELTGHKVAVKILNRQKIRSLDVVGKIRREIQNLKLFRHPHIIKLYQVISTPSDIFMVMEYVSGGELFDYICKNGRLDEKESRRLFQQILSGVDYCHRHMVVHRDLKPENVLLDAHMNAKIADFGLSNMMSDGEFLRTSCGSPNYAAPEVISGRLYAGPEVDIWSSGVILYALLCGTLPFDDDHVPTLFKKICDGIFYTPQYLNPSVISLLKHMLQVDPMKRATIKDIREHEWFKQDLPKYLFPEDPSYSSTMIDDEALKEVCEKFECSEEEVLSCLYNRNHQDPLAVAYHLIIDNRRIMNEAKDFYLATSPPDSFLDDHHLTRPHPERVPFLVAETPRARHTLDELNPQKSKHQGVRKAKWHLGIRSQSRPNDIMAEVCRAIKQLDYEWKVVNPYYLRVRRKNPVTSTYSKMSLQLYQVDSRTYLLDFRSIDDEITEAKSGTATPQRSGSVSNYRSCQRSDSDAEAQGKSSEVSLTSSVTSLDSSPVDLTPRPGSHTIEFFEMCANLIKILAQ
T6 sequence (Q9Y478 whole entry partner): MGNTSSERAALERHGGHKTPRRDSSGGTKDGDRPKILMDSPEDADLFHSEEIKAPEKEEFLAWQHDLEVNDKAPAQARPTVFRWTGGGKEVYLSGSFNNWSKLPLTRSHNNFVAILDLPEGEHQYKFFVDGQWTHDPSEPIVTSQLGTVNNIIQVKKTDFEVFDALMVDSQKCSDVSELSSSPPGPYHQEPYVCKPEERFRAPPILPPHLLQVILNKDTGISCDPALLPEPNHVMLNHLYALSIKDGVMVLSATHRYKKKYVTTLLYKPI
T6 sequence (P54619 whole entry partner): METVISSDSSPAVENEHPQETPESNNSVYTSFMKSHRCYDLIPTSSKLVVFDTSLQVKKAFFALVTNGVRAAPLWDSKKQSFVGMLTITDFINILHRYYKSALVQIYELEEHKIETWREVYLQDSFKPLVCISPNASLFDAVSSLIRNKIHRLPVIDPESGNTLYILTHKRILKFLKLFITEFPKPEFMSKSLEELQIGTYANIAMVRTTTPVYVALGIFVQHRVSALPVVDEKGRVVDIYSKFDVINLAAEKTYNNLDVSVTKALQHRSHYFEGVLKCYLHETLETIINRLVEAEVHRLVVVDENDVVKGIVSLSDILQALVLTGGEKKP

ASK1(h) = molecular target: T7, ASK1(h) (Homo sapiens, UniProt Q99683); test: Kinase screen; type: biochemical; details: 0.1% DMSO control = 100%
T7 construct: purchased Millipore (KinaseProfiler service)

GRK5(h) = molecular target: T8, GRK5(h) (Homo sapiens, UniProt P34947); test: Kinase screen; type: biochemical; details: 0.1% DMSO control = 100%
T8 construct: purchased Millipore (KinaseProfiler service)
T8 sequence (P34947 whole entry): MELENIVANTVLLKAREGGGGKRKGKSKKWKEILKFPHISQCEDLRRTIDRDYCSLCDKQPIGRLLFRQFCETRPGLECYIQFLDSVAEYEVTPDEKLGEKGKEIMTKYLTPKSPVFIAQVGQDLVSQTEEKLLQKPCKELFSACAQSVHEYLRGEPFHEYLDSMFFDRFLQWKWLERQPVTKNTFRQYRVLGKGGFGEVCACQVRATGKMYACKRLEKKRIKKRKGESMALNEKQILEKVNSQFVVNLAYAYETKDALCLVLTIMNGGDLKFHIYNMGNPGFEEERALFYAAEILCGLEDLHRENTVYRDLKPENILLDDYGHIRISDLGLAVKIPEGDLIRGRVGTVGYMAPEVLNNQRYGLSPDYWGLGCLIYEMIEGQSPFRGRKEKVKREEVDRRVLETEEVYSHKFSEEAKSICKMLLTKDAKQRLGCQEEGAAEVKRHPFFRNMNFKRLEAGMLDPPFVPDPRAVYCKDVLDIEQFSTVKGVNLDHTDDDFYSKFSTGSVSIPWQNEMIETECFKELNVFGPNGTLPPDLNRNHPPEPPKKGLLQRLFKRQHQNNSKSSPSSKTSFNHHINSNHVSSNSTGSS

JAK2(h) = molecular target: T9, JAK2(h) (Homo sapiens, UniProt O60674); test: Kinase screen; type: biochemical; details: 0.1% DMSO control = 100%
T9 construct: purchased Millipore (KinaseProfiler service)

Mnk2(h) = molecular target: T10, Mnk2(h) (Homo sapiens, UniProt Q9HBH9); test: Kinase screen; type: biochemical; details: 0.1% DMSO control = 100%
T10 construct: purchased Millipore (KinaseProfiler service)
T10 sequence (Q9HBH9 whole entry): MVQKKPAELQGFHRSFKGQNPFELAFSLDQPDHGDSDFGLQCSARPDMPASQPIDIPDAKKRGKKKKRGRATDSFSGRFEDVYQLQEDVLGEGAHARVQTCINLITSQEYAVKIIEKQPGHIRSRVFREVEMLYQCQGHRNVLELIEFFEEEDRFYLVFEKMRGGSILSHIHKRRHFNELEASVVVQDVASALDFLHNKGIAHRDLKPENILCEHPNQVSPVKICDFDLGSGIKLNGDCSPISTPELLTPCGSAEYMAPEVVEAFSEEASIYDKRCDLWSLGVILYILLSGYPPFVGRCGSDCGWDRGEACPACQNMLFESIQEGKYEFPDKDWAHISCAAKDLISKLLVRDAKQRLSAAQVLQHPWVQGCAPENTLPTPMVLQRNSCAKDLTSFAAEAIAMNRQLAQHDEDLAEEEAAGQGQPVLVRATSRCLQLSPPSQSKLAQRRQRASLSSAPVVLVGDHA

NEK2(h) = molecular target: T11, NEK2(h) (Homo sapiens, UniProt P51955); test: Kinase screen; type: biochemical; details: 0.1% DMSO control = 100%
T11 construct: purchased Millipore (KinaseProfiler service)
T11 sequence (P51955 whole entry): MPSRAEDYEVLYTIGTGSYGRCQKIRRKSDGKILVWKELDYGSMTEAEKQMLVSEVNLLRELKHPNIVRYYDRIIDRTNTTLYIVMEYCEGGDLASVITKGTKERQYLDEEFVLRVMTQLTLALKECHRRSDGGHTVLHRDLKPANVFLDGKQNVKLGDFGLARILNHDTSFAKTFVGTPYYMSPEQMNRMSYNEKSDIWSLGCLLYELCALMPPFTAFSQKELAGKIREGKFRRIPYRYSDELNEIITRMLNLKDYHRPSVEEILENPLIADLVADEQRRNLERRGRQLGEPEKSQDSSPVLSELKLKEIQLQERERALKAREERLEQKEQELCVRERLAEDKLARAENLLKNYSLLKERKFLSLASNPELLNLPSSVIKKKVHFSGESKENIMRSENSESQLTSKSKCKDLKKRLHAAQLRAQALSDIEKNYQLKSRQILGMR

PDGFRβ(h) = molecular target: T12, PDGFRβ(h) (Homo sapiens, UniProt P09619); test: Kinase screen; type: biochemical; details: 0.1% DMSO control = 100%
T12 construct: purchased Millipore (KinaseProfiler service)
T12 sequence (P09619 33-1106): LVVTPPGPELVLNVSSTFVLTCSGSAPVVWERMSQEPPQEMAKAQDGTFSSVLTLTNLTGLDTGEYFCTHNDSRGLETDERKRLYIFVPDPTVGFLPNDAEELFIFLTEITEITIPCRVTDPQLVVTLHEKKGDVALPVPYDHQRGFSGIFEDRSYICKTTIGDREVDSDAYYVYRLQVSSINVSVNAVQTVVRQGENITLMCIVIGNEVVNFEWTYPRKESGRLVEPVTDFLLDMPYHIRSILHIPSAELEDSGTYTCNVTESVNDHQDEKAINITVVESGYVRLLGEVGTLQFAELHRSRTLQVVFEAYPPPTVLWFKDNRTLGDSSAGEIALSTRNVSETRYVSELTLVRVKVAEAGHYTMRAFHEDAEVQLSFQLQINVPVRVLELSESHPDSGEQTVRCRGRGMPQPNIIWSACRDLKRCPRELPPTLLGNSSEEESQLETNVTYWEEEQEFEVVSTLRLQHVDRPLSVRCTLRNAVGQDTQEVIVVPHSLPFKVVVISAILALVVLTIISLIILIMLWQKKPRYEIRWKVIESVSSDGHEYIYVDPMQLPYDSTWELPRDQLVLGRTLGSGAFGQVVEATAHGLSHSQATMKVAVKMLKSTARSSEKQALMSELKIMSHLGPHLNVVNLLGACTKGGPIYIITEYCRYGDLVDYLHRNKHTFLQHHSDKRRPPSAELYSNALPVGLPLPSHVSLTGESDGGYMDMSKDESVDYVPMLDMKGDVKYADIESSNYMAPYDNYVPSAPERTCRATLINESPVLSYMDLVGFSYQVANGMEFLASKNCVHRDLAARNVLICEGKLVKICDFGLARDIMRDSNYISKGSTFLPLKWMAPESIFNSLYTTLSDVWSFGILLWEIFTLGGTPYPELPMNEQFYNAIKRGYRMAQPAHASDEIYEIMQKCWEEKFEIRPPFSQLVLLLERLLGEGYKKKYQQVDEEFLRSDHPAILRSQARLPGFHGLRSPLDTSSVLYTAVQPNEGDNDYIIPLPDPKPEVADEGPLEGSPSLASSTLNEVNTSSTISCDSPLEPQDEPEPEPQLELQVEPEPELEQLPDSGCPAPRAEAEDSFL

PKA(h) = molecular target: T13, PKA(h) (Homo sapiens, UniProt P17612); test: Kinase screen; type: biochemical; details: 0.1% DMSO control = 100%
T13 construct: purchased Millipore (KinaseProfiler service)

PKCα(h) = molecular target: T14, PKCα(h) (Homo sapiens, UniProt P17252); test: Kinase screen; type: biochemical; details: 0.1% DMSO control = 100%
T14 construct: purchased Millipore (KinaseProfiler service)

SAPK2a(h) = molecular target: T15, SAPK2a(h) (Homo sapiens, UniProt Q16539); test: Kinase screen; type: biochemical; details: 0.1% DMSO control = 100%
T15 construct: purchased Millipore (KinaseProfiler Service)

Hh (Shh) pathway = test: Shh Light II (Gli1-Luc) reporter assay; details: 1 or 10 μM, 48 h, 50% Shh-CM
From the text: 1) a stable reporter line for sonic hedgehog pathway, Shh Light II cells (Glil-Luc-purchased from ATCC and maintained according to suppliers recommendations);

Q: Which results are given for `COc1ccc(-n2c(SCc3nc(-c4ccc(C)cc4)no3)nnc2-c2ccncc2)cc1` [Compound 1]?
A: pIC50 (SW480 cells [1]): ~4.94; growth reduction [2]: only a minor growth reduction; growth reduction (MeWo (melanoma) cells): only a minor growth reduction; growth reduction [3]: only a minor growth reduction; concentration at 24 h after the last injection ([4]; plasma, 150 mg/kg, 150 mg/kg group, read-out: concentration in plasma): 1300 ng/mL; concentration at 24 h after the last injection ([4]; plasma, 300 mg/kg, 300 mg/kg group, read-out: concentration in plasma): 1300 ng/mL; concentration at 24 h after the last injection ([4]; tumor, 150 mg/kg, 150 mg/kg cohort, read-out: concentration in tumors, mean): 11800 ng/g; concentration at 24 h after the last injection ([4]; tumor, 150 mg/kg, 150 mg/kg cohort, read-out: concentration in tumors, range): 1900 to 32900 ng/g; concentration at 24 h after the last injection ([4]; tumor, 300 mg/kg, 300 mg/kg cohort, read-out: concentration in tumors, mean): 2400 ng/g; concentration at 24 h after the last injection ([4]; tumor, 300 mg/kg, 300 mg/kg cohort, read-out: concentration in tumors, range): 900 to 4900 ng/g; GI50 (SW480 cells [5]): 11.5 µM; inhibition of kinase or phosphatase activity [6]: No extensive inhibition; activity at 10 µM (LMPTP-B(h)): 100%; activity at 10 µM (PTPb(h)): 106%; activity at 10 µM (SHP-1(h)): 102%; activity at 10 µM (TCPTP(h)): 100%; activity at 10 µM (Abl(h)): 93%; activity at 10 µM (AMPKα1(h)): 95%; activity at 10 µM (ASK1(h)): 106%; activity at 10 µM (GRK5(h)): 104%; activity at 10 µM (JAK2(h)): 118%; activity at 10 µM (Mnk2(h)): 108%; activity at 10 µM (NEK2(h)): 94%; activity at 10 µM (PDGFRβ(h)): 129%; activity at 10 µM (PKA(h)): 86%; activity at 10 µM (PKCα(h)): 105%; activity at 10 µM (SAPK2a(h)): 106%; effect against the Hh (Shh) pathway (Hh (Shh) pathway): no substantial activating or inhibitory effect
